Tested on: Varroa destructor
Experiment: Varroa mite contact test on Potter-tower-treated Petri dishes, mortality after 72 h
Assay type: in vivo
Conditions: adult V. destructor, 20 mites (4 dishes of 5), assessed after 72 h
Description: Varroa mites came from bee colonies provided by a beekeeper. The mite population is kept in a dedicated apiary. For screening needs adults are collected on the same day as the beginning of experiment, either in beehive cells containing brood of worker bees or drones, or directly on bees emerging during collection.
Bee nymphs needed to feed adults of Varroa mites during experiments are choosen within the frames from which Varroa is also collected. They are collected at the stage of nymph with white or pink coloured eyes according methology described by Rembold et Kremer (Characterization of postembryonic developmental stages of the female castes of the honey bee, Apis mellifera L. Apidologie 11: 29-38).
3 cm diameter Petri dishes were used as confinement material of Varroa mites during experiments. Covers with wire mesh were put on the top of each Petri dish in order to avoid the mites to run away but also to keep favorable humidity for the bee nymph. […]
After treatment of Petri dishes, five (5) adults of V. destructor collected from the brood were placed in the petri dish. […] Mortality levels are assessed after 72 h (mites which are able to move their legs are considered as alive). […]

| SMILES | % mortality of Varroa (formulation SC240, concentration 1.25 microlitre) [%] | % mortality of Varroa (formulation SC240, concentration 0.8 microlitre) [%] |
| --- | --- | --- |
| CCC(C)(C)C(=O)OC1=C(c2ccc(Cl)cc2Cl)C(=O)OC12CCCCC2 [spirodiclofen, 3-(2,4-dichlorophenyl)-2-oxo-1-oxaspiro[4.5]dec-3-en-4-yl 2,2-dimethylbutyrate] | 100 | – |
| Cc1cc(C)c(C2=C(OC(=O)CC(C)(C)C)C3(CCCC3)OC2=O)c(C)c1 [spiromesifen, 3-mesityl-2-oxo-1-oxaspiro[4.4]non-3-en-4-yl 3,3-dimethylbutyrate] | – | 100 |
